A short description of data set [1]: Cytotoxicity screening at 10 µM (MTT). The class given is cell-based, Human. The conditions noted are these: human, HeLa cells, read-out: Cell line (viability %) HeLa.
A short description of data set [2]: Cytotoxicity MTT assay (0.1–1000 µM), CC50. The conditions noted are these: Macaca mulatta, LLC-MK2 cells. The class given is cell-based, Macaca mulatta.
The nature of data set [3]: Cytotoxicity MTT assay (0.1–1000 µM), CC50. The settings on record: human, HeLa cells. The class given is cell-based, Human. For orientation: Tetrazolium dyes change colour on reduction, which living cells bring about.
For data set [4], the system named is Human herpesvirus 5 (HCMV). Put plainly: Antiviral screening at 10 µM, plaque reduction. The class given is cell-based. The settings on record: Human betaherpesvirus 5, antiviral screening, HCMV-infected cells, read-out: Cell line (viability %) HCMV. Here is the method: Antiviral properties of compounds 1a, 1c, 1a[PF6], 1c[PF6], 9b[PF6], 9c[PF6], 10a–10d, 2a, and 2b were assessed against five viruses: Human herpesvirus 1 (HSV-1, VR-539), Human parainfluenza virus type 3 (HPIV-3, VR-93), Human adenovirus 5 (AdV5, VR-5), Human herpesvirus 5 (HCMV, VR-977), and Encephalomyocarditis virus (EMCV, VR-1479). Viruses were purchased from the American Type Culture Collection (ATCC, Manassas, VA, USA).
All tested compounds were dissolved in DMSO (dimethyl sulfoxide, Sigma-Aldrich, Darmstadt, Germany) and then suspended in Minimum Essential Medium (MEM; Sigma-Aldrich, Darmstadt, Germany) supplemented with 2% heat-inactivated fetal bovine serum (FBS; Sigma-Aldrich, Darmstadt, Germany), 2 mM L-glutamine (Sigma-Aldrich, Darmstadt, Germany), and 100 units/mL penicillin G with […] streptomycin (Sigma-Aldrich, Darmstadt, Germany).
Vero, LLC-MK2, NCTC clone 929, MRC-5, and HeLa cells were propagated in Minimum Essential Medium (MEM; Sigma-Aldrich, Darmstadt, Germany) supplemented with 10% heat-inactivated fetal bovine serum (FBS; Sigma-Aldrich, Darmstadt, Germany) and 100 units/mL penicillin G with […] streptomycin (Sigma-Aldrich, Darmstadt, Germany). Upon reaching 80–90% confluency, cells were harvested with 0.25% trypsin in 1 mM EDTA (Life Technologies, Warsaw, Poland) and seeded onto 96-well microplates at 2 × 10^5 cells/mL. After overnight incubation of cells at 37 °C in a humidified atmosphere containing 5% CO2, the culture medium was removed, and cells were inoculated with the respective virus solution in MEM supplemented with 2% FBS and antibiotics (HSV-1 MOI 0.005, 1000 virions/mL; HPIV-3 MOI 0.01, 2000 virions/mL; AdV5 MOI 0.005, 1000 virions/mL, EMCV MOI 0.005, 1000 virions/mL, HCMV 20 PFU (plaque forming units) per well). After a 1-h (HSV-1, HPIV-3, AdV5, and EMCV) or 2-h adsorption period (HCMV), the residual virus was removed, and the infected cells were further incubated with a 100 μL freshly prepared solution of tested compounds diluted with a maintenance medium supplemented with 2% FBS to obtain compound concentrations of 10 µM. The final concentration of DMSO in the medium was 0.1%. All experiments were carried out in triplicate. The cells monolayers were incubated with the compounds at 37 °C in a humidified atmosphere containing 5% CO2 until the typical cytopathic effect (CPE) was visible. Viral infection was evaluated by the MTT assay or plaque reduction assay (HCMV). After incubation with drugs, the cells were treated with 3-(4,5-dimethylthiazol-2-yl)-2,5-diphenyltetrazolium bromide dye solution (MTT, Sigma-Aldrich, Darmstadt, Germany) (25 μL, 5 mg/mL) for 2 h and lysed with solvent solution (100 μL) containing: DMF (Sigma-Aldrich, Darmstadt, Germany) (45 mL), SDS (Sigma-Aldrich, Darmstadt, Germany) (13.5 g), and distilled water (55 mL). After overnight incubation at 37 °C, the optical density at 550 nm and a reference wavelength of 670 nm were measured on a microplate spectrophotometer, Varioskan Lux (Thermo Fisher Scientific, Waltham, MA, USA). The number of HCMV plaques was counted under an inverted microscope Olympus IX73 (Olympus, Tokyo, Japan).

Data set [5] is described as follows: Cytotoxicity screening at 10 µM (MTT). The class given is cell-based, Cercopithecus aethiops. The conditions noted are these: Cercopithecus aethiops, Vero cells, read-out: Cell line (viability %) Vero.
A short description of data set [6]: Cytotoxicity MTT assay (0.1–1000 µM), CC50. The conditions noted are these: Mus musculus, NCTC clone 929 cells, Table S2, range 0.1-1000 µM, NCTC clone 929; read-out: Cell line (CC50 M) NCTC clone 929. The class given is cell-based, Mus musculus.
Data set [7] deals with Encephalomyocarditis virus (EMCV). Put plainly: Antiviral screening at 10 µM. The class given is cell-based. The conditions noted are these: Cardiovirus A, EMCV-infected cells, read-out: Cell line (viability %) EMCV. In short, it runs like this: (§1)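 Infected Vero, LLC-MK2, NCTC 929 or HeLa cell monolayers (MOI 0.005; HPIV-3 MOI 0.01) were treated after 1-h adsorption with compounds at 10 µM (0.1% DMSO). Cultures were incubated at 37 °C until cytopathic effect was visible. Viral infection was scored by MTT assay (OD 550/670 nm), in triplicate.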

Data set [8] relates to Human adenovirus 5 (AdV5). Put plainly: Antiviral screening at 10 µM. The class given is cell-based. The conditions noted are these: Human mastadenovirus C, AdV5-infected cells, read-out: Cell line (viability %) AdV5. The method, boiled down: as §1
For data set [9], the system named is Human herpesvirus 1 (HSV-1). Put plainly: Antiviral screening at 10 µM. The class given is cell-based. The conditions noted are these: Human alphaherpesvirus 1, antiviral screening, HSV-1-infected cells, read-out: Cell line (viability %) HSV-1. The method, boiled down:
as §1

Data set [10] relates to Human parainfluenza virus type 3 (HPIV-3). Put plainly: Antiviral screening at 10 µM. The settings on record: Human respirovirus 3, antiviral screening, HPIV-3-infected cells, read-out: Cell line (viability %) HPIV-3. The class given is cell-based. The method, boiled down:
as §1

Like-named read-outs stand apart in the source and are kept apart here.

In article PMC9181938, “Fluorinated Analogues of Lepidilines A and C: Synthesis and Screening of Their Anticancer and Antiviral Activity” (Molecules, 2022) one finds viability and CC50 data, which are given here for one molecule.

As a reminder, the viability is a per cent measure of how many cells are alive, often set against a control. A word on the CC50: it is the concentration that lowers cell viability or growth by half.

Turning to `Cc1c(C)n(Cc2ccccc2)c(=S)n1Cc1ccccc1` [Compound 10a], the viability at 48 h, 10 µM in data set [1] came out at 61.1%; in [5], 83.8%. In addition, the CC50 at 48 h in data set [2] (LLC-MK2, MTT, 48 h, read-out: CC50 Normal Cell Lines LLC-MK2) is less than 20 µM; in data set [2] (Table S2, range 0.1-1000 µM, LLC-MK2, read-out: Cell line (CC50 M) LLC-MK2), 16.2 ± 3.75 µM; in data set [3] (MTT, 48 h, read-out: CC50 Cancer Cell Lines HeLa), less than 20 µM; in data set [3] (Table S2, range 0.1-1000 µM, read-out: Cell line (CC50 M) HeLa) it was 16.9 ± 2.19 µM; in data set [6], 46 ± 6.93 µM. Besides, the viability at 10 µM worked out at 3.6% in data set [4]; 79.6% in data set [7]; 62% in [8]; 29.7% in data set [9]; 69.2% in [10].
